Reference: patent publication US8337899B2, “Solid pharmaceutical dispersions with enhanced bioavailability” (Bend Research, Inc., priority 1997, dated 2012)
Values belong to the compound of their own block, whether it stands above or below them.

Key:
[1] = centrifuge in vitro dissolution test in MFD solution; assay type: physicochemical; conditions: centrifuge method; for MSSC (maximum supersaturated concentration): MFD solution pH 6.5, 37° C., supernatant; for C90: concentration at 90 minutes; for C1200: concentration at 1200 minutes
Experimental: This example discloses an in vitro dissolution test termed the “centrifuge” method. This method was used to test the dissolution of material made by essentially the same method as that described in Example 1 except that the concentration of Compound 1 was decreased by a factor of 2 to 66.5 mg such that the ratio of compound to polymer was 1:1. (see Example 7, Table I).
In a 37° C. controlled temperature box, 1.8 mg of solid product from Example 1 was accurately weighed into an empty microcentrifuge tube (polypropylene, Sorenson Bioscience Inc.). The theoretical maximum concentration of compound in solution (e.g., if all compound dissolved) was 383 μgA/ml [1.8 mg dispersion (1000 μg/1 mg) (0.5 μg compound/μg dispersion) (0.764 compound assay)/1.8 ml=[…]]. This value is termed the theoretical maximum supersaturated concentration and is abbreviated Theoretical MSSC. 1.8 mL of a 37C phosphate buffered saline solution (8.2 mM NaCl, 1.1 mM Na2HPO4, 4.7 mM KH2PO4, pH 6.5, 290 mOsm/kg) containing 14.7 mM sodium taurocholic acid (Fluka) and 2.8 mM 1-palmitoyl-2-oleoyl-sn-glycero-3-phosphocholine (Avanti Polar Lipids) was added to the tube. The centrifuge tube was closed and a timer was started. The tube was then mixed continuously at the highest speed on a vortex mixer (Fisher Vortex Genie 2) for 60 seconds. The tube was transferred to a centrifuge (Marathon, Model Micro A) allowed to stand undisturbed for six minutes, then centrifuged at 13,000 G for 60 seconds. A 25 uL sample was removed from the solids-free supernatant in the centrifuge tube via pipette (Gilson Pipetman P-100) ten minutes after the timer was started. Solids in the centrifuge tube were resuspended by mixing the sample continuously on the vortex mixer for 30 seconds. The centrifuge tube was returned to the centrifuge and allowed to stand undisturbed until the next sample was taken. Each sample was centrifuged, sampled and resuspended as described previously. Each sample was diluted 1:1 with a solution containing 60/40 1.7 wt % ammonium ascorbate/acetonitrile, and the concentration of compound was determined by HPLC (Hewlett Packard 1090 HPLC, Phenomenex Ultracarb ODS 20 analytical column, absorbance measured at 215 nm with a diode array spectrophotometer). […] […] The maximum compound concentration observed, 125 μgA/ml, is termed the maximum supersaturated concentration of compound and is abbreviated MSSC.

[2] = syringe/filter in vitro dissolution test in MFD solution; assay type: physicochemical; conditions: for C90: concentration at 90 minutes; for MSSC (maximum supersaturated concentration): syringe/filter method, MFD solution pH 6.5, 37° C., 0.45 μm filtrate
Experimental: This example discloses an in vitro dissolution test termed the “syringe/filter” method. In this method the concentration of test compound in solution is determined as a function of time. Test solution is held in a syringe from which samples are expelled through a filter at pre-determined time points. In between expelling samples from the syringe, the syringe is rotated (50 rpm) on a wheel held in an oven at 37° C.
A 20 GA hypodermic needle was attached to the syringe, and 10 mL of a model-fasted duodenal (MFD) solution at 37° C. was drawn into the syringe.
The MFD solution was prepared using the following procedure. […] This mixture was then mixed thoroughly by vortex mixer (Fisher Vortex Genie), and the solvent removed rapidly by roto-evaporator (Rotavapor RE121, Büchi), leaving a dry white surface dispersion coating the flask. The surface dispersion was then reconstituted with 200 mL of the 37° C. phosphate buffered saline.
The needle was then replaced with a 13 mm, 0.45 μm polyvinylidine diflouride syringe filter (Scientific Resources, Titan), and the syringe was vigorously shaken for 30 sec. After 30 sec, 6 drops of the solution was expelled and a subsequent 13 drop sample was delivered to a test tube. After expelling the sample, the syringe plunger was drawn back to pull an air bubble into the syringe to aid in subsequent mixing and the syringe placed back on a rotating wheel in a 37° C. oven. […] The remaining solution in the syringe was mixed by rotating on a wheel at 50 rpm in a 37° C. temperature-controlled box.

aqueous solubility = assay type: physicochemical; conditions: pH 6.5
[3] = solid amorphous dispersions in HPMCAS, pH 4.0; cited from earlier work

MSSC (maximum supersaturated concentration) [1]: 194 μgA/mL | C90 [1]: 158 μgA/mL | C1200 [1]: 194 μgA/mL
Structure (SMILES): O=C(N[C@@H](Cc1ccccc1)[C@@H](O)C(=O)N1C[C@@H](O)[C@@H](O)C1)c1cc2cc(Cl)ccc2[nH]1 (relative stereo) [Example C17, 1H-Indole-2-caboxamide, 5-chloro-N-[3-(3,4-dihydroxy-1-pyrrolidinyl)-2-hydroxy-3-oxo-1-(phenylmethnyl)propyl]-, [R—[R*,S*-(cis)]]-]

C60 ([2]; concentration at 60 minutes, syringe/filter, MFD, 37° C.): 17 μgA/mL | C90 ([2]; syringe/filter, MFD, 37° C.): 15 μgA/mL | MSSC (maximum supersaturated concentration) [2]: 18 μgA/mL
Structure (SMILES): COC1=CC(=O)CC(C)C12Oc1c(Cl)c(OC)cc(OC)c1C2=O (stereo not drawn) [Example C11, 7-chloro-4,6-dimethoxy-courmaran-3-one-2-spiro-1′-(2′-methoxy-6′-methylcyclohex-2′en-4′-one)]

C90 ([2]; syringe/filter, MFD, 37° C.): 10 μgA/mL | C180 ([2]; concentration at 180 minutes, syringe/filter, MFD, 37° C.): 8.5 μgA/mL | C1200 ([2]; concentration at 1200 minutes, syringe/filter, MFD, 37° C.): 9 μgA/mL | MSSC (maximum supersaturated concentration) [2]: 10 μgA/mL
Structure (SMILES): CON(C)C(=O)C(O)[C@H](Cc1ccccc1)NC(=O)c1cc2cc(Cl)ccc2[nH]1 (stereo in doubt) [Example C1, [R—(R*,S*)]-5-chloro-N-[2-hydroxy-3-(methoxymethylamino)-3-oxo-1-(phenylmethyl)propyl]-1-H-indole-2-carboxamide]

C3 ([1]; concentration at 3 minutes): 14 μgA/mL | C10 ([1]; concentration at 10 minutes): 20 μgA/mL | C20 ([1]; concentration at 20 minutes): 28 μgA/mL | C40 ([1]; concentration at 40 minutes): 34 μgA/mL | C90 [1]: 50 μgA/mL
Structure (SMILES): O=C1NC(=O)C(c2ccccc2)(c2ccccc2)N1 [Example C14, 5,5-diphenylhydantoin]

MSSC (maximum supersaturated concentration) [1]: 22 μgA/mL | C90 [1]: 22 μgA/mL | C1200 [1]: 22 μgA/mL
Structure (SMILES): CCC(CC)Nc1cc(C)nc(Oc2c(C)cc(C)cc2C)c1C [Example C16, [3,6-dimethyl-2-(2,4,6-trimethyl-phenoxy)-pyridin-4-yl]-(1-ethyl-propyl)-amine]

Further lines, the compound ahead of its results:

Structure (SMILES): CCC(CC)Oc1cc(C)nc(Oc2c(C)cc(C)cc2C)c1C [Example C5]
MSSC (maximum supersaturated concentration) [1]: 18 μgA/mL | C90 [1]: 18 μgA/mL | C1200 [1]: 13 μgA/mL

Structure (SMILES): CON(C)C(=O)C(O)[C@H](Cc1ccccc1)NC(=O)c1cc2cc(Cl)ccc2[nH]1 (stereo in doubt) [Compound 1, [R—(R*,S*)]-5-chloro-N-[2-hydroxy-3-(methoxymethylamino)-3-oxo-1-(phenylmethyl)propyl]-1-H-indole-2-carboxamide]
equilibrium solubility ([2]; in the dissolution medium (MFD)): 9 μgA/ml

Structure (SMILES): Cc1ccc2c(c1)N(CC(=O)NC(C)(C)C)C(=O)C(NC(=O)Nc1cccc(Cl)c1)CC2c1ccccc1 (stereo not drawn) [N-tert-butyl-2-{3-[3-(3-chloro-phenyl)-unreido]-8-methyl-2-oxo-5-phenyl-2,3,4,5-tetrahydrobenxo[b]azepin-1-yl}-acetamide]
aqueous solubility (aqueous solubility): less than 3.0 μg/ml

Structure (SMILES): CC[C@H]1OC(=O)C[C@@H](O)[C@H](C)[C@@H](O[C@@H]2O[C@H](C)[C@@H](O[C@H]3C[C@@](C)(O)[C@@H](OC(=O)Cc4ccc(OC)cc4)[C@H](C)O3)[C@H](N(C)C)[C@H]2O)[C@@H](CC=O)C[C@@H](C)C(=O)/C=C/C(C)=C/[C@@H]1CO[C@@H]1O[C@H](C)[C@@H](O)[C@@H](OC)[C@H]1OC [MAT, 4″-0-(4-methoxyphenyl)acetyltylosin]
supersaturated concentration relative to crystalline MAT [3]: 9 fold
